One test deals with KRAS(G12C) (Homo sapiens, UniProt P01116, G12C). As to the kind of experiment: KRAS(G12C)/SOS1 homogeneous time-resolved fluorescence (HTRF) assay. Also on record: purchased Cisbio 63ADK000CB16PEG. Conditions: absence of GTP, 4° C. for 3 hr, read-out: KRAS (G12C) binding. How it is done: KRAS(G12C)/SOS1 Homogeneous Time-Resolved Fluorescence (HTRF) Assay
Binding of test compounds to KRAS(G12C) protein, which in turn blocks KRAS(G12C) interaction with the SOS1 protein, was measured in the absences of GTP by homogeneous time-resolved fluorescence (HTRF) using the KRAS-G12C/SOS1 Binding Assay Kit (Cisbio, #63ADK000CB16PEG), following the manufacturer's instructions, except as noted. 3-fold serial dilutions of each test compound were prepared ranging from […] to 1.02 nM. The test compound was mixed and incubated with reaction components, incubated in a sealed plate at 4° C. for 3 hr and fluorescence was measured using a PerkinElmer Envision plate reader.

Test [1] deals with MIA PaCa-2 human pancreatic carcinoma. As to the kind of experiment: MIA PaCa-2 CCK-8 proliferation assay. Conditions: Homo sapiens, MIA PaCa-2, 72 h, MIA PaCa-2 cells. The class given is cell-based. How it is done:
The following cancer cell lines were employed: BT-474 human breast carcinoma (ATCC, #HTB-20); MIA PaCa-2 human pancreatic carcinoma [2 copies KRAS(G12C)](ATCC, #CRL-1420); NCI-H23 human non-small cell lung cancer [1 copy KRAS(G12C)](ATCC, #CRL-5800); NCI-H358 human non-small cell lung cancer [1 copy KRAS(G12C)](ATCC, #CRL-5807); LU65A human lung carcinoma (Pharmaron, Beijing, China). Cell lines were cultured essentially according to ATCC and Pharmaron recommendations.
Cancer Cell Line Proliferation (CCK-8) Assays
3-fold serial dilutions of each test compound were prepared ranging from 20 μM to 1.02 nM.
% Inhibition=100−(D−B)/(S−B)*100%. • S: Absorbance of cells treated with DMSO • D: Absorbance of compound-treated cells • B: Absorbance of medium with DMSO without cells

The target in another test is T1, HSP90a protein (Homo sapiens, UniProt P07900).
T1 construct: purchased BPS Bioscience 50298
As to the kind of experiment: HSP90α-binding fluorescent polarization (FP) assay, BODIPY-labeled RNK04010 probe. Conditions: FP competition with RNK04010 (BODIPY-labeled), 5 nM, 300 min at 25° C. How it is done:
HSP90α-Binding Fluorescent Polarization (FP) Assay
Binding of test compounds to HSP90a protein was measured by fluorescent polarization (FP) using the HSP90a (N-terminal) Assay Kit (BPS Bioscience, #50298), following the manufacturer's instructions, except as noted. Fluorescently labeled HSP90-binding compounds, either the provided FITC-geldanamycin (5 nM final concentration) or RNK04010, a triazolone-based HSP90 binding small molecule labeled with BODIPY through a piperizine-phenyl linker (5 nM final concentration) were employed. A 2.5-fold serial dilution of each test compound ranging from 20 μM to 5.2 nM was assayed for binding to HSP90a. After the final step of adding HSP90a protein to each assay well, plates were mixed by brief shaking, incubated at 25° C. for 120 min for FITC-geldanamycin or 300 min for RNK04010, and fluorescence was measured using a PerkinElmer EnVision Plate Reader.

KRAS(G12C), sequence (P01116 1-188 isoform P01116-2 G12C): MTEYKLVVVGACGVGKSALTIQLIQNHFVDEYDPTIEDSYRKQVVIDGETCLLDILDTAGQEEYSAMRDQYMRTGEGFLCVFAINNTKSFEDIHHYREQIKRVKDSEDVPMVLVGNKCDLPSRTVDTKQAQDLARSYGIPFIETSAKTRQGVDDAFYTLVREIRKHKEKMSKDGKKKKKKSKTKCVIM

With `C=CC(=O)N1CCN(c2nc(OC[C@@H]3CCN3C(=O)C3CCN(Cc4ccc(-n5c(C(N)=O)nnc5-c5cc(C(C)C)c(O)cc5O)cc4)CC3)nc3c2CCN(c2cccc4cccc(Cl)c24)C3)C[C@@H]1CC#N` [Compound 190, 4-(4-((4-((S)-2-(((4-((S)-4-acryloyl-3-(cyanomethyl)piperazin-1-yl)-7-(8-chloronaphthalen-1-yl)-5,6,7,8-tetrahydropyrido[3,4-d]pyrimidin-2-yl)oxy)methyl)azetidine-1-carbonyl)piperidin-1-yl)methyl)phenyl)-5-(2,4-dihydroxy-5-isopropylphenyl)-4H-1,2,4-triazole-3-carboxamide], the IC50 on KRAS(G12C) was in the range of 100 to 1000 nM. The EC50 in test [1] lay in the range of 100 to 1000 nM.
`C=CC(=O)N1CCN(c2nc(OC[C@@H]3C[C@@H](NC(=O)C4CCN(Cc5ccc(-n6c(C(=O)NCCN(CC)CC)nnc6-c6cc(C(C)C)c(O)cc6O)cc5)CC4)CN3C)nc3c2CCN(c2cccc4cccc(Cl)c24)C3)C[C@@H]1CC#N` [Compound 204, N-((3R,5S)-5-(((4-((S)-4-acryloyl-3-(cyanomethyl)piperazin-1-yl)-7-(8-chloronaphthalen-1-yl)-5,6,7,8-tetrahydropyrido[3,4-d]pyrimidin-2-yl)oxy)methyl)-1-methylpyrrolidin-3-yl)-1-(4-(3-((2-(diethylamino)ethyl)carbamoyl)-5-(2,4-dihydroxy-5-isopropylphenyl)-4H-1,2,4-triazol-4-yl)benzyl)piperidine-4-carboxamide] showed an IC50 on HSP90a protein of less than 100 nM. The EC50 in test [1] is greater than 1000 nM.
The matching figures for `C=C(F)C(=O)N1CCN(c2nc(OCCN3CCN(C(=O)c4ccc(-n5c(O)nnc5-c5cc(C(C)C)c(O)cc5O)cc4)CC3)nc3c2CCN(c2cccc4cccc(Cl)c24)C3)C[C@@H]1CC#N` [Compound 226]: less than 100 nM and greater than 1000 nM.
With `C=CC(=O)N1CCN(c2nc(OCCN3CCC(C(=O)N4CCC(CN5CCC(Cc6ccc(-n7c(O)nnc7-c7cc(O)c(C(C)C)cc7O)cc6)CC5)CC4)CC3)nc3c2CCN(c2cccc4cccc(Cl)c24)C3)C[C@@H]1CC#N` [Compound 238, (S)-2-(1-acryloyl-4-(7-(8-chloronaphthalen-1-yl)-2-(2-(4-(4-((4-(4-(3-(2,5-dihydroxy-4-isopropylphenyl)-5-hydroxy-4H-1,2,4-triazol-4-yl)benzyl)piperidin-1-yl)methyl)piperidine-1-carbonyl)piperidin-1-yl)ethoxy)-5,6,7,8-tetrahydropyrido[3,4-d]pyrimidin-4-yl)piperazin-2-yl)acetonitrile], the IC50 on KRAS(G12C) was in the range of 100 to 1000 nM. The EC50 in test [1] is greater than 1000 nM.
`C=CC(=O)N1CCN(c2nc(OCCN3CCC(C(=O)N4CCN(Cc5ccc(-n6c(C(=O)NC)nnc6-c6cc(C(C)C)c(O)cc6O)cc5)CC4)CC3)nc3c2CCN(c2cccc4cccc(Cl)c24)C3)C[C@@H]1CC#N` [Compound 239, (S)-4-(4-((4-(1-(2-((4-(4-acryloyl-3-(cyanomethyl)piperazin-1-yl)-7-(8-chloronaphthalen-1-yl)-5,6,7,8-tetrahydropyrido[3,4-d]pyrimidin-2-yl)oxy)ethyl)piperidine-4-carbonyl)piperazin-1-yl)methyl)phenyl)-5-(2,4-dihydroxy-5-isopropylphenyl)-N-methyl-4H-1,2,4-triazole-3-carboxamide]: the IC50 at KRAS(G12C) is less than 100 nM. Also, the EC50 in test [1] lay within 100 to 1000 nM.
The like results for `C=CC(=O)N1CCN(c2nc(OCCN3CCC(C(=O)N4CCN(Cc5ccc(-n6c(C(=O)NCCN7CCN(S(C)(=O)=O)CC7)nnc6-c6cc(C(C)C)c(O)cc6O)cc5)CC4)CC3)nc3c2CCN(c2cccc4cccc(Cl)c24)C3)C[C@@H]1CC#N` [Compound 242, (S)-4-(4-((4-(1-(2-((4-(4-acryloyl-3-(cyanomethyl)piperazin-1-yl)-7-(8-chloronaphthalen-1-yl)-5,6,7,8-tetrahydropyrido[3,4-d]pyrimidin-2-yl)oxy)ethyl)piperidine-4-carbonyl)piperazin-1-yl)methyl)phenyl)-5-(2,4-dihydroxy-5-isopropylphenyl)-N-(2-(4-(methylsulfonyl)piperazin-1-yl)ethyl)-4H-1,2,4-triazole-3-carboxamide] were, in that order, less than 100 nM and 100 to 1000 nM.
Regarding `C=CC(=O)N1CCN(c2nc(OCCN3CCC(C(=O)N4CCN(CCNC(=O)c5nnc(-c6cc(C(C)C)c(O)cc6O)n5-c5ccccc5)CC4)CC3)nc3c2CCN(c2cccc4cccc(Cl)c24)C3)C[C@@H]1CC#N` [Compound 243, (S)—N-(2-(4-(1-(2-((4-(4-acryloyl-3-(cyanomethyl)piperazin-1-yl)-7-(8-chloronaphthalen-1-yl)-5,6,7,8-tetrahydropyrido[3,4-d]pyrimidin-2-yl)oxy)ethyl)piperidine-4-carbonyl)piperazin-1-yl)ethyl)-5-(2,4-dihydroxy-5-isopropylphenyl)-4-phenyl-4H-1,2,4-triazole-3-carboxamide], the IC50 on KRAS(G12C) is less than 100 nM. Moreover, the concentration for a half-maximal effect (EC50) in test [1] lay in the range of 100 to 1000 nM.
The matching figures for `C=CC(=O)N1CCN(c2nc(OCCN3CCC(N4CCN(C(=O)C5CCN(Cc6ccc(-n7c(C(N)=O)nnc7-c7cc(C(C)C)c(O)cc7O)cc6)CC5)CC4)CC3)nc3c2CCN(c2cccc4cccc(Cl)c24)C3)C[C@@H]1CC#N` [Compound 249, (S)-4-(4-((4-(4-(1-(2-((4-(4-acryloyl-3-(cyanomethyl)piperazin-1-yl)-7-(8-chloronaphthalen-1-yl)-5,6,7,8-tetrahydropyrido[3,4-d]pyrimidin-2-yl)oxy)ethyl)piperidin-4-yl)piperazine-1-carbonyl)piperidin-1-yl)methyl)phenyl)-5-(2,4-dihydroxy-5-isopropylphenyl)-4H-1,2,4-triazole-3-carboxamide]: less than 100 nM and 100 to 1000 nM.
`C=CC(=O)N1CCN(c2nc(OC[C@@H]3CC[C@H](C(=O)N4CCN(C(=O)C5CCN(Cc6ccc(-n7c(O)nnc7-c7cc(C(C)C)c(O)cc7O)cc6)CC5)CC4)N3C)nc3c2CCN(c2cccc4cccc(Cl)c24)C3)C[C@@H]1CC#N` [Compound 305, 2-[(2S)-4-[7-(8-chloronaphthalen-1-yl)-2-{[(2S,5R)-5-{4-[1-({4-[3-(2,4-dihydroxy-5-isopropylphenyl)-5-hydroxy-1,2,4-triazol-4-yl]phenyl}methyl)piperidine-4-carbonyl]piperazine-1-carbonyl}-1-methylpyrrolidin-2-yl]methoxy}-5H,6H,8H-pyri-do[3,4-d]pyrimidin-4-yl]-1-(prop-2-enoyl)piperazin-2-yl]acetonitrile]: the IC50 on HSP90a protein was less than 100 nM. For the same molecule, in test [1], the EC50 is 100 to 1000 nM.
The matching figures for `C=CC(=O)N1CCN(c2nc(OC[C@@H]3CC[C@H](C(=O)N4CCN(C(=O)C5CCN(Cc6ccc(-n7c(O)nnc7-c7cc(C)c(O)cc7O)cc6)CC5)CC4)N3C)nc3c2CCN(c2cccc4cccc(Cl)c24)C3)C[C@@H]1CC#N` [Compound 306, 2-[(2S)-4-[7-(8-chloronaphthalen-1-yl)-2-{[(2S,5R)-5-{4-[1-({4-[3-(2,4-dihydroxy-5-methylphenyl)-5-hydroxy-1,2,4-triazol-4-yl]phenyl}methyl)piperidine-4-carbonyl]piperazine-1-carbonyl}-1-methylpyrrolidin-2-yl]methoxy}-5H,6H,8H-pyrido [3,4-d]pyrimidin-4-yl]-1-(prop-2-enoyl)piperazin-2-yl]acetonitrile]: less than 100 nM and greater than 1000 nM.
Regarding `C=CC(=O)N1CCN(c2nc(OC[C@@H]3CC[C@H](C(=O)N4CCN(C(=O)C5CCN(Cc6ccc(-n7c(O)nnc7-c7cc(C(C)C)c(O)cc7O)cc6)CC5)CC4)N3C)nc3c2CCN(c2cccc4cccc(Cl)c24)C3)C[C@@H]1CC#N` [Compound 341, 2-[(2S)-4-[7-(8-chloronaphthalen-1-yl)-2-{[(2S,5R)-5-{4-[1-({4-[3-(2,4-dihydroxy-5-isopropylphenyl)-5-hydroxy-1,2,4-triazol-4-yl]phenyl}methyl)piperidine-4-carbonyl]piperazine-1-carbonyl}-1-methylpyrrolidin-2-yl]methoxy}-5H,6H,8H-pyri-do[3,4-d]pyrimidin-4-yl]-1-(prop-2-enoyl)piperazin-2-yl]acetonitrile], the IC50 on HSP90a protein and at KRAS(G12C) was less than 100 nM throughout.
